Reference: EPA's ToxValDB 9.5
Where “and” joins values, the source holds several entries; their conditions need not be identical. Identical values can stand only once.

How the values were obtained:
Rattus norvegicus [1] = details: subchronic, oral, gavage, M/F; for NOEL: duration: 13 weeks, Fischer 344
Mus musculus [2] = details: repeat dose other; oral
Mus musculus [3] = details: short-term, inhalation, M, immunological
Mus musculus [4] = system: Mus musculus
Rattus norvegicus [5] = details: for LC50 / LD50: acute
Cavia porcellus = details: acute; Inhalation; Guinea Pig
Oryctolagus sp. [6] = details: oral, gavage, New Zealand
Homo sapiens = details: clinical; duration: 1 days; inhalation; M/F; respiratory
Canidae [7] = details: oral, diet, Beagle
Oryctolagus sp. [8] = details: acute; dermal
Rattus norvegicus [9] = system: Rattus norvegicus
Oryctolagus sp. [10] = details: developmental, M/F
Rattus norvegicus [11] = system: Rattus norvegicus; remark: listed apart in the source
Rattus norvegicus [12] = details: chronic; duration: 16 weeks; oral; diet; Kidney: Degeneration
Canidae [13] = details: chronic, duration: 2 years, oral, diet, M/F, Dog Other
Canidae [14] = details: chronic, oral, diet, Dog Other
[15] = reproduction developmental, duration: 6 days, inhalation, Crl: CFW(SW)Br, Charles River Laboratories, generation: F1
[16] = reproduction developmental, inhalation, M, CD1
[17] = chronic, oral, F, liver and kidney toxicity
[18] = oral, Reduced body weight gain (maternal), increased resorption, reduced body weight (fetal), delayed ossification
[19] = reduced body weight gain, increased liver and kidney weight, and rbc cholinesterase inhibition

c1ccccc1 [Benzene]
NOEL (Rattus norvegicus [1]; Deaths + Body Weight Changes: decrease + Hematology: WBC decrease, Lympho decrease + Histopathology: Spleen-B-cell depletion Spleen-…): < 25 mg/kg-day | LOAEL (Mus musculus [2]): 264 mg/kg-day | NOAEL (Mus musculus [2]): 26.4 mg/kg-day | LOAEL (Mus musculus [3]; duration: 6 days, whole body, C57BL/6): 32.6 mg/m3 | LOAEL (Mus musculus [3]; duration: 20 days, C57Bl/6): 31.9 mg/m3 | LOAEL (Mus musculus [4]; repeat dose other, inhalation, CD1): 31.9 mg/m3 | LOAEL (Mus musculus [4]; [15]): 63.9 mg/m3 | NOAEL (Mus musculus [4]; [15]): 31.9 mg/m3 | NOAEL (Mus musculus [4]; reproduction developmental, duration: 6 days, inhalation, F, Crl: CFW(SW)Br, Charles River Laboratories): 63.9 mg/m3 | LOAEL (Mus musculus [4]; reproduction developmental, inhalation, F, CD1): 958 mg/m3 | LOAEL (Mus musculus [4]; [16]): 958 mg/m3 | NOAEL (Mus musculus [4]; [16]): 95.8 mg/m3 | LC50 (Rattus norvegicus [5]; inhalation, Sprague-Dawley): 43800 mg/m3

CCCCOCCOCCOCOCCOCCOCCCC [Bis(butoxyethoxyethoxy)methane]
LC50 (Mus musculus [4]; acute, Inhalation, Swiss-Webster): > 200 µg/mL | LC50 (Cavia porcellus): > 200 µg/mL | LC50 (Rattus norvegicus [5]; Inhalation, Wistar): > 200 µg/mL | LD50 (Rattus norvegicus [5]; dermal, occlusive, Sprague-Dawley): > 2000 mg/kg | LD50 (Rattus norvegicus [5]; oral, Sprague-Dawley): > 2000 mg/kg | NOAEL (Rattus norvegicus [5]; developmental, duration: 9 weeks, oral, gavage, Sprague-Dawley): 100 mg/kg-day | NOAEL (Rattus norvegicus [5]; reproduction developmental, duration: 9 weeks, oral, gavage, F, Sprague-Dawley): 100 mg/kg-day | NOAEL (Rattus norvegicus [5]; reproduction developmental, duration: 9 weeks, oral, gavage, Sprague-Dawley): 100 mg/kg-day | NOAEL (Rattus norvegicus [5]; reproduction developmental, duration: 9 weeks, oral, gavage, Sprague-Dawley, generation: F0): 100 mg/kg-day | NOAEL (Rattus norvegicus [5]; reproduction developmental, duration: 9 weeks, oral, gavage, Sprague-Dawley, generation: F1): 100 mg/kg-day

[B] [Boron]
NOAEL (Oryctolagus sp. [6]; developmental, duration: 13 days, M/F, developmental): 22 mg/kg-day | NOAEL (Homo sapiens): 0.8 mg/m3

CCC(CC)C(C)COC(=O)c1ccccc1C(=O)OCC(C)C(CC)CC (stereo not drawn) [Di-C7-9-branched and linear alkyl phthalates]
LD50 (Mus musculus [4]; acute, oral): > 26000 mg/kg | NOAEL (Canidae [7]; chronic, duration: 14 weeks): 100 mg/kg-day | LD50 (Rattus norvegicus [5]; oral): > 22000 mg/kg | NOAEL (% diet) (Rattus norvegicus [5]; reproduction developmental, oral, diet, Sprague-Dawley, generation: F0): 1 | NOAEL (% diet) (Rattus norvegicus [5]; reproduction developmental, oral, diet, Sprague-Dawley, generation: F1): 1 | NOAEL (Rattus norvegicus [5]; short-term, duration: 4 weeks, oral, diet): 100 mg/kg-day

CC(C)CCCCCCOC(=O)CCCCC(=O)OCCCCCCC(C)C [Diisononyl adipate]
LD50 (Oryctolagus sp. [8]): > 3160 mg/kg | NOAEL (Canidae [7]; subchronic, duration: 13 weeks): 274 mg/kg-day | LD50 (Rattus norvegicus [5]; oral, gavage): > 10000 mg/kg | NOAEL (Rattus norvegicus [5]; subchronic, duration: 13 weeks, oral, diet): 500 mg/kg-day

CCc1ccccc1 [Ethylbenzene]
NOAEL (Rattus norvegicus [1]; duration: 90 days, Wistar, Clinical Observation: Salivation Discolored urine + Functional Observational Battery: Decreased landing foot-splay + Body Weight Changes: …): 75 mg/kg-day | LOAEL (Rattus norvegicus [9]; chronic, duration: 104 weeks, inhalation, M/F, Fischer 344, renal): 326 mg/m3 | NOAEL (Oryctolagus sp. [10]; inhalation, developmental toxicity): 434 mg/m3 | LOAEL (Rattus norvegicus [11]; [17]): 408 mg/kg-day | NOEL (Rattus norvegicus [11]; [17]): 97.1 mg/kg-day and 136 mg/kg-day | LOAEL (Rattus norvegicus [11]; developmental, inhalation, M/F, developmental toxicity): 4340 mg/m3

ClC(Cl)(Cl)C(Cl)(Cl)Cl [Hexachloroethane]
NOEL (Rattus norvegicus [1]; Deaths + Clinical Observation: Hyperactivity Convulsions + Body Weight Changes: decrease + Relative Organ Weight: Liver increase, Brain …): < 47 mg/kg-day | NOAEL (Rattus norvegicus [12]): 1 mg/kg-day | NOAEL (Oryctolagus sp. [6]; short-term, duration: 12 days, M, hepatic): 100 mg/kg-day | NOAEL (Rattus norvegicus [9]; chronic, duration: 16 weeks, oral, diet, M/F, Fischer 344, hepatic): 1 mg/kg-day | NOAEL (Rattus norvegicus [9]; reproduction developmental, duration: 10 days, inhalation, F, Sprague-Dawley, neurological): 465 mg/m3 | NOAEL (Rattus norvegicus [9]; subchronic, duration: 6 weeks, inhalation, M/F, Sprague-Dawley, neurological): 465 mg/m3 | NOAEL (Rattus norvegicus [11]; subchronic, duration: 6 weeks, inhalation, M/F, Sprague-Dawley, neurotoxicity: tremors and ruffled pelt): 465 mg/m3

CC(C)(C)c1cc(CCC(=O)OCC(COC(=O)CCc2cc(C(C)(C)C)c(O)c(C(C)(C)C)c2)(COC(=O)CCc2cc(C(C)(C)C)c(O)c(C(C)(C)C)c2)COC(=O)CCc2cc(C(C)(C)C)c(O)c(C(C)(C)C)c2)cc(C(C)(C)C)c1O [Irganox 1010]
NOAEL (Mus musculus [4]; developmental, duration: 10 days, oral, gavage): 1000 mg/kg-day | NOAEL (Mus musculus [4]; developmental, duration: 10 days, oral, gavage, NMRI): 1000 mg/kg-day | NOAEL (Mus musculus [4]; reproduction developmental, duration: 10 days, oral, gavage, F): 1000 mg/kg-day | LD50 (Oryctolagus sp. [8]): > 3160 mg/kg | NOAEL (Canidae [7]; subchronic, duration: 3 months): 322 mg/kg-day | LC50 (Rattus norvegicus [5]; inhalation): > 1.96 µg/mL | LD50 (Rattus norvegicus [5]; oral): > 5000 mg/kg | NOAEL (Rattus norvegicus [5]; developmental, duration: 10 days, oral, gavage, Sprague-Dawley): 1000 mg/kg-day | NOAEL (Rattus norvegicus [5]; reproduction developmental, duration: 10 months, oral, diet, generation: F0): 10000 ppm | NOAEL (Rattus norvegicus [5]; reproduction developmental, duration: 10 months, oral, diet, generation: F1): 10000 ppm | NOAEL (Rattus norvegicus [5]; reproduction developmental, duration: 10 months, oral, diet, generation: F2): 10000 ppm | NOAEL (Rattus norvegicus [5]; subchronic, duration: 3 months, oral, diet, Sprague-Dawley): 2500 mg/kg-day

[Hg+2].[S-2] [Mercury sulfide (HgS)]
NOAEL (Mus musculus [2]): 13.2 mg/kg-day

C#CCOS(=O)OC1CCCCC1Oc1ccc(C(C)(C)C)cc1 (stereo not drawn) [Propargite]
LEL (Oryctolagus sp. [10]; [18]): 6 mg/kg-day | NOEL (Oryctolagus sp. [10]; [18]): 2 mg/kg-day | NOEL (Canidae [13]; No adverse effects observed at the HDT): 22.5 mg/kg-day

CCOP(=S)(OCC)SCSC(C)(C)C [Terbufos]
NOAEL (Canidae [14]; duration: 6 months, Cholinesterase: Inhibition): 0.0025 mg/kg-day

COP(=O)(OC)O/C(=C/Cl)c1cc(Cl)c(Cl)cc1Cl [Tetrachlorovinphos]
NOEL (Canidae [14]; duration: 2 years, Kidney: Increased weight + Liver: Increased weight): 3.1 mg/kg-day | LEL (Canidae [13]; [19]): 50 mg/kg-day | NOEL (Canidae [13]; [19]): 3.13 mg/kg-day
